Data on 8 molecules can be found in ChEMBL document CHEMBL1151061, “Synthesis and inhibitory effects of bivalent sialyl lewis X analogs at preventing cell adhesion” (Bioorg Med Chem Lett, 1997).

The target in this assay is T1, E-selectin (Homo sapiens, UniProt P16581).
T1 sequence (P16581 whole entry): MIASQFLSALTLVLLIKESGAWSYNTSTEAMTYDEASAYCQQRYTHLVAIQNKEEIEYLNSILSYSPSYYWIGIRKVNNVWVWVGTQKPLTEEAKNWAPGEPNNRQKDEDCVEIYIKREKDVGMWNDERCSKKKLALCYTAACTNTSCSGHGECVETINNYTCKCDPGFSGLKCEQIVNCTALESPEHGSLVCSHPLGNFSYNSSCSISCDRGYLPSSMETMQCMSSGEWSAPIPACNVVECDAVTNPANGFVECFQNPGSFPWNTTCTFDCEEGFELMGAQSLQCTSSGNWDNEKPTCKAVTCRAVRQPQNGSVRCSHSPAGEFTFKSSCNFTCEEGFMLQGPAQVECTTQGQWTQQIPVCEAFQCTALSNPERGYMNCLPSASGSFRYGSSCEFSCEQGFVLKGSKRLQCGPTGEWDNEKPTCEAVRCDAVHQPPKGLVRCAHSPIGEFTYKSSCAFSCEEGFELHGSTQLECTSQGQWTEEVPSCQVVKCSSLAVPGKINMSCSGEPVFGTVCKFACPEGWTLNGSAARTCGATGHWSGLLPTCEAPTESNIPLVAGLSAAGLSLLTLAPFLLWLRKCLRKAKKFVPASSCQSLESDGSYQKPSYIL
The experiment in a line: Compound was evaluated for its inhibitory activity against adhesion of HL-60(human promyelocytic leukemia cells) to recombinant human soluble E-selectin (rhsE).

Turning to `CO[C@H]1O[C@@H](O[C@H]2[C@H](O[C@@H]3O[C@@H](C)[C@@H](O)[C@@H](O)[C@@H]3O)[C@@H](NC(=O)c3ccc4ccccc4c3)[C@H](OCCCc3cccc(CCCO[C@@H]4O[C@H](CO)[C@@H](O[C@@H]5O[C@H](OC)[C@H](O)[C@H](O[C@]6(C(=O)O)C[C@H](O)[C@@H](NC(C)=O)[C@H]([C@H](O)[C@H](O)CO)O6)[C@H]5O)[C@H](O[C@@H]5O[C@@H](C)[C@@H](O)[C@@H](O)[C@@H]5O)[C@H]4NC(=O)c4ccc5ccccc5c4)c3)O[C@@H]2CO)[C@H](O)[C@@H](O[C@]2(C(=O)O)C[C@H](O)[C@@H](NC(C)=O)[C@H]([C@H](O)[C@H](O)CO)O2)[C@H]1O`, the IC50 (as a rule, the concentration needed to halve the response being measured) stood at 32 µM.

On to `COC(=O)N[C@@H]1C(O)C(OC2C(O)[C@H](O[C@@H]3C(CO)O[C@@H](OCCCO[C@@H]4CCC[C@H](OCCCO[C@@H]5OC(CO)[C@@H](O[C@@H]6OC(CO)[C@H](O)C(OC7C(O)[C@@H](NC(=O)OC)C([C@H](O)[C@H](O)CO)O[C@H]7C(=O)O)C6O)C(O[C@@H]6OC(C)[C@H](O)C(O)C6O)C5Nc5ccc6ccccc6c5)C4)C(Nc4ccc5ccccc5c4)C3O[C@@H]3OC(C)[C@H](O)C(O)C3O)OC(CO)[C@@H]2O)[C@H](C(=O)O)OC1[C@H](O)[C@H](O)CO` (stereo partly drawn), for which the IC50 came out at 41 µM.

Take `COC(=O)N[C@@H]1C(O)C(OC2C(O)[C@H](O[C@@H]3C(CO)O[C@@H](OCCCO[C@H]4CCC[C@H](OCCCO[C@@H]5OC(CO)[C@@H](O[C@@H]6OC(CO)[C@H](O)C(OC7C(O)[C@@H](NC(=O)OC)C([C@H](O)[C@H](O)CO)O[C@H]7C(=O)O)C6O)C(O[C@@H]6OC(C)[C@H](O)C(O)C6O)C5Nc5ccc6ccccc6c5)C4)C(Nc4ccc5ccccc5c4)C3O[C@@H]3OC(C)[C@H](O)C(O)C3O)OC(CO)[C@@H]2O)[C@H](C(=O)O)OC1[C@H](O)[C@H](O)CO` (stereo partly drawn): the IC50 was determined as 49 µM.

As for `CC(=O)N[C@@H]1[C@@H]([C@H](O)[C@H](O)CO)O[C@](O[C@H]2[C@@H](O)[C@@H](O[C@@H]3[C@@H](O[C@H]4O[C@H](C)[C@H](O)[C@@H](O)[C@H]4O)[C@@H](NC(=O)c4ccc5ccccc5c4)[C@@H](OCCc4cccc(CCO[C@@H]5O[C@@H](CO)[C@@H](O[C@@H]6O[C@@H](CO)[C@H](O)[C@H](O[C@]7(C(=O)O)C[C@@H](O)[C@@H](NC(C)=O)[C@H]([C@H](O)[C@H](O)CO)O7)[C@@H]6O)[C@H](O[C@@H]6O[C@@H](C)[C@@H](O)[C@H](O)[C@@H]6O)[C@@H]5NC(=O)c5ccc6ccccc6c5)c4)O[C@@H]3CO)O[C@H](CO)[C@H]2O)(C(=O)O)C[C@@H]1O`, the IC50 was found to be 60 µM.

Turning to `CC(=O)N[C@@H]1[C@@H]([C@H](O)[C@H](O)CO)O[C@](O[C@H]2[C@@H](O)[C@@H](O[C@@H]3[C@@H](O[C@H]4O[C@H](C)[C@H](O)[C@@H](O)[C@H]4O)[C@@H](NC(=O)c4ccc5ccccc5c4)[C@@H](OCCCOc4cccc(OCCCO[C@@H]5O[C@@H](CO)[C@@H](O[C@@H]6O[C@@H](CO)[C@H](O)[C@H](O[C@]7(C(=O)O)C[C@@H](O)[C@@H](NC(C)=O)[C@H]([C@H](O)[C@H](O)CO)O7)[C@@H]6O)[C@H](O[C@@H]6O[C@@H](C)[C@@H](O)[C@H](O)[C@@H]6O)[C@@H]5NC(=O)c5ccc6ccccc6c5)c4)O[C@@H]3CO)O[C@H](CO)[C@H]2O)(C(=O)O)C[C@@H]1O`, the IC50 came to 37 µM.

On to `CCO[C@@H]1O[C@@H](CO)[C@@H](O[C@@H]2O[C@@H](CO)[C@H](O)[C@H](O[C@]3(C(=O)O)C[C@@H](O)[C@@H](NC(C)=O)[C@H]([C@H](O)[C@H](O)CO)O3)[C@@H]2O)[C@H](O[C@@H]2O[C@@H](C)[C@@H](O)[C@H](O)[C@@H]2O)[C@@H]1NC(C)=O`, for which the IC50 came to 1500 µM.

As for `CC(=O)N[C@@H]1[C@@H]([C@H](O)[C@H](O)CO)O[C@](O[C@H]2[C@@H](O)[C@@H](O[C@@H]3[C@@H](O[C@H]4O[C@H](C)[C@H](O)[C@@H](O)[C@H]4O)[C@@H](NC(=O)c4ccc5ccccc5c4)[C@@H](OCc4cccc(CO[C@@H]5O[C@@H](CO)[C@@H](O[C@@H]6O[C@@H](CO)[C@H](O)[C@H](O[C@]7(C(=O)O)C[C@@H](O)[C@@H](NC(C)=O)[C@H]([C@H](O)[C@H](O)CO)O7)[C@@H]6O)[C@H](O[C@@H]6O[C@@H](C)[C@@H](O)[C@H](O)[C@@H]6O)[C@@H]5NC(=O)c5ccc6ccccc6c5)c4)O[C@@H]3CO)O[C@H](CO)[C@H]2O)(C(=O)O)C[C@@H]1O`, the IC50 came out at 30 µM.

As for `CC(=O)N[C@H]1[C@H]([C@H](O)[C@H](O)CO)O[C@@](O[C@@H]2[C@H](O)[C@H](O[C@H]3[C@H](O[C@@H]4O[C@@H](C)[C@@H](O)[C@H](O)[C@@H]4O)[C@H](NC(=O)c4ccc5ccccc5c4)[C@H](OCCCc4cccc(CCCO)c4)O[C@H]3CO)O[C@@H](CO)[C@@H]2O)(C(=O)O)C[C@H]1O`, the IC50 stood at 200 µM.
